Values of other authors as cited in US20050002962A1, “Immunostimulatory agents in botanicals” (priority 2003, published 2005).

How the values were obtained:
mice = conditions: mouse, in vivo
macrophages = conditions: 250 μg/ml

Row | Molecule | carbon clearance (mice) | macrophage IL-1 production, of maximal E. coli LPS (10 μg/ml) (macrophages) [%] | macrophage interferon-β production versus maximal E. coli LPS (10 μg/ml) (macrophages)
1 | O=C(/C=C/c1ccc(O)c(O)c1)O[C@@H](C(=O)O)[C@@H](OC(=O)/C=C/c1ccc(O)c(O)c1)C(=O)O [cichoric acid, Cichoric acid] | enhanced carbon clearance |  | 
2 | arabinogalactan |  | 20 | equal to
3 | echinacoside | inactive |  | 
